Test results: BigSolDB 2.1

NCC1(CC(=O)O)CCCCC1
solubility (mole fraction)
Conditions | 283.15 K | 288.15 K | 293.15 K | 298.15 K | 303.15 K | 308.15 K | 313.15 K | 318.15 K | 323.15 K
in ethanol | 0.00134 | 0.00153 | 0.0017 | 0.00187 | 0.00224 | 0.00243 | 0.00267 | 0.003 | 0.00329
in methanol | 0.00718 | 0.00795 | 0.00878 | 0.00943 | 0.0107 | 0.0117 | 0.0127 | 0.014 | 0.016

NCC1(CC(=O)O)CCCCC1.O
in water
Conditions | solubility (mole fraction)
283.15 K | 0.0093
288.15 K | 0.0106
293.15 K | 0.0116
298.15 K | 0.0124
303.15 K | 0.0137
308.15 K | 0.0152
313.15 K | 0.0168
318.15 K | 0.0189
323.15 K | 0.0222
